Assay results from ChEMBL document CHEMBL1201862, “PubChem BioAssay data set” (2004).
Activity calls are given as the source filed them.

Key:
[1] = Luminescence Cell-Based Dose Response HTS to Identify Activators of Luciferase Translation or Activity in H4 […] Cells. [Related pubchem assays: 1829 (Project Summary), 1814 (Primary HTS)]; assay type: functional
H4 = test: Luminescence Cell-Based Dose Response HTS to Identify Activators of 5'UTR Stem-Loop Driven Prion Protein mRNA Translation in H4 Neuroglioblastoma Cells. [Related pubchem assays: 1829 (Project Summary), 1814 (Primary HTS)]; assay type: functional; details: Homo sapiens
[2] = Luminescence Cell-Based Dose Confirmation HTS to Identify Activators of 5'UTR Stem-Loop Driven Alpha-Synuclein mRNA Translation in H4 Neuroglioblastoma Cells. [Related pubchem assays: 1829 (Project Summary), 1814 (Primary HTS)]; assay type: functional
[3] = off-target signal loss in HeLa-CEM21 co-culture – HeLa F-luc CTL cells, cherry-picked, counter-screen for HIV-1 Env fusion inhibitor project, dose response (AID 652040); assay type: functional, cell-based;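 note: potency for signal decrease marking cytotoxic or nonspecific inhibition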
[4] = inhibitors of HIV Env-driven cell fusion, dose response, cherry-pick (AID 652057); assay type: functional, cell-based
[5] = ZM109 Env clade C HIV-1 fusion inhibitors, dose response, HeLa effector, CEM target cells, luciferase, cherry-pick (AID 652058); assay type: functional, cell-based
[6] = microbe, parasite or virus in culture; assay type: functional; details: Mycobacterium tuberculosis
[7] = inhibitors of clade B AD8 Env fusion, dose response, cell-based, cherry-pick (AID 652062); assay type: functional;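 note: luciferase signal from cell-cell fusion driven by HIV-1 clade B AD8 Env; potency is for inhibitors of fusion seen as a drop in luminescence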
[8] = HEp-2 cell cytotoxicity, dose response, cytotoxicity control for RSV inhibitor project, HTS (AID 2410); assay type: functional; details: human respiratory syncytial virus
Cytochrome P450 2C9 = Cytochrome P450 2C9 (Homo sapiens, UniProt P11712)
[9] = molecular target: T1, Heat shock factor protein 1 (Mus musculus, UniProt P38532); test: HSF1 potentiators in luciferase reporter cells, confirmation, cell-based, NIH3T3, luminescence, dose retest (AID 435004); assay type: functional;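 note: stress induced by proteasome inhibitor MG132 added 30 min after compound; luciferase reporter driven by HSF1 response element in NIH3T3 cells; actives raise luminescence as potentiators of the MG132 stress response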
T1 sequence (P38532 whole entry): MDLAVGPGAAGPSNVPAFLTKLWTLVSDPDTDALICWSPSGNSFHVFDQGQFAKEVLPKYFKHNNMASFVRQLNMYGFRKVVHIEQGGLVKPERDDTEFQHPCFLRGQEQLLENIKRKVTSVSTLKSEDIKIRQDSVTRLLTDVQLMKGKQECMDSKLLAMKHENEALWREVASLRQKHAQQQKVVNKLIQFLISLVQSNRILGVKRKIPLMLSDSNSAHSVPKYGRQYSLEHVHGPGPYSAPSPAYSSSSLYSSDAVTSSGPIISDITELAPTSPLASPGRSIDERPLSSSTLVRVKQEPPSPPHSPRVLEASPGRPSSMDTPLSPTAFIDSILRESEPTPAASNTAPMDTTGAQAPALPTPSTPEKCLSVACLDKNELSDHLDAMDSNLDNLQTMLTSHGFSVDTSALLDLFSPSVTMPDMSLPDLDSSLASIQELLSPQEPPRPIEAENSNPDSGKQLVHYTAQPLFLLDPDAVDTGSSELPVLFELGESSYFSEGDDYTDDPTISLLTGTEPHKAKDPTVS

Cytochrome P450 3A4 = Cytochrome P450 3A4 (Homo sapiens, UniProt P08684);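 note: CYP3A4 tested as one member of a cytochrome P450 panel screen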
Nonstructural protein 1 = Nonstructural protein 1 (Influenza A virus, UniProt Q194T2); assay type: functional, Influenza A virus (A/California/07/2009(H1N1))
[10] = molecular target: T2, Polyadenylate-binding protein 1 (Homo sapiens, UniProt P11940); test: PABP1 MLLE–PAM2 interaction inhibitors, dose response, miRNA deadenylation inhibitor project, biochemical, fluorescence polarization, Cy5-PAM2 peptide, secondary (AID 602260); assay type: functional; details: read-out: IC50_Mean
[11] = molecular target: T2, Polyadenylate-binding protein 1; test: PABP1 MLLE–PAM2 binding inhibitor potency, dose response, biochemical, fluorescence polarization, FITC-PAM2 peptide (AID 602259); assay type: functional; details: read-out: IC50_Mean
Cytochrome P450 2C19 = Cytochrome P450 2C19 (Homo sapiens, UniProt P33261); test: Cytochrome panel assay with activity outcomes. Panel member name: p450-cyp2c19 Compounds with AC50 equal or less than 10 uM are considered active; assay type: functional; details: read-out: AC50
Cytochrome P450 1A2 = molecular target: T3, Cytochrome P450 1A2 (Homo sapiens, UniProt P05177);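 note: PubChem cytochrome P450 panel assay, CYP1A2 panel member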
T3 sequence (P05177 whole entry): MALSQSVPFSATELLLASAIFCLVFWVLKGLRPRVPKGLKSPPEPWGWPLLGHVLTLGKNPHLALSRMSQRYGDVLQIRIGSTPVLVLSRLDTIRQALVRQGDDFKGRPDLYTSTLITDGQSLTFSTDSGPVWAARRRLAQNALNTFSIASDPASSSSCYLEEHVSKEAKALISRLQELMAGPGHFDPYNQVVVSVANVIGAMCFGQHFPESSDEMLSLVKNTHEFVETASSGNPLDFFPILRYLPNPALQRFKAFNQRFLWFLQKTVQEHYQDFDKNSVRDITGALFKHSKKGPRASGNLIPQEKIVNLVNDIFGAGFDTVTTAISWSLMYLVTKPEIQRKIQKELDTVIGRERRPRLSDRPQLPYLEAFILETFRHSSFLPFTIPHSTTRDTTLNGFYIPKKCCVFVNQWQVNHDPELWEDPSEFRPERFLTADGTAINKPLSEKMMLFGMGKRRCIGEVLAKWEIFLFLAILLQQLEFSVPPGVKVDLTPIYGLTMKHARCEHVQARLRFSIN

Cytochrome P450 2C9, sequence (P11712 whole entry): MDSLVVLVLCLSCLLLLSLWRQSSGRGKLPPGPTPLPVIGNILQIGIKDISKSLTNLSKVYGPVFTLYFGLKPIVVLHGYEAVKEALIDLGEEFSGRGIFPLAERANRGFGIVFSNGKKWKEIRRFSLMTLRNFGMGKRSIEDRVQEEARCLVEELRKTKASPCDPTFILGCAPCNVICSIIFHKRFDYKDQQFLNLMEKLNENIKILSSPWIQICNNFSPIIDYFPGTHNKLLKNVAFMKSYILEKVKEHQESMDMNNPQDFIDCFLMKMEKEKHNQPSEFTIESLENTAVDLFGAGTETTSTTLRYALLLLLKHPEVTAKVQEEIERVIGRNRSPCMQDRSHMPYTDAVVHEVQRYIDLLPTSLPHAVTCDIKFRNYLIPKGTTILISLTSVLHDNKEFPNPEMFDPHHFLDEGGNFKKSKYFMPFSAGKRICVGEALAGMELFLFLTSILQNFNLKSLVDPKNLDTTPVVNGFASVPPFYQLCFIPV
Cytochrome P450 3A4, sequence (P08684 whole entry): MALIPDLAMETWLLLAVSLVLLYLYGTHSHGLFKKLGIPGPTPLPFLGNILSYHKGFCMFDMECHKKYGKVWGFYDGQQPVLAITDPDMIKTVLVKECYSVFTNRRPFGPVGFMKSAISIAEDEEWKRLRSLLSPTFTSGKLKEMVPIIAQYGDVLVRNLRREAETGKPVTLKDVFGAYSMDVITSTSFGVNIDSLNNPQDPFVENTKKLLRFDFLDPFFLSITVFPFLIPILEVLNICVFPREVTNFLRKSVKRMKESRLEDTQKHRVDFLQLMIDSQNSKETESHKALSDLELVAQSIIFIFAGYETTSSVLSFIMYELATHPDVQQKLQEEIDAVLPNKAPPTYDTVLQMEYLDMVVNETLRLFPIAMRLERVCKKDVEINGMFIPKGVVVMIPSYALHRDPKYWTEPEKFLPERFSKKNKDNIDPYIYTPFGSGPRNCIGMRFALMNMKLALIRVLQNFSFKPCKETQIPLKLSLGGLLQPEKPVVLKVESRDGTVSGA
T2 sequence (P11940 whole entry): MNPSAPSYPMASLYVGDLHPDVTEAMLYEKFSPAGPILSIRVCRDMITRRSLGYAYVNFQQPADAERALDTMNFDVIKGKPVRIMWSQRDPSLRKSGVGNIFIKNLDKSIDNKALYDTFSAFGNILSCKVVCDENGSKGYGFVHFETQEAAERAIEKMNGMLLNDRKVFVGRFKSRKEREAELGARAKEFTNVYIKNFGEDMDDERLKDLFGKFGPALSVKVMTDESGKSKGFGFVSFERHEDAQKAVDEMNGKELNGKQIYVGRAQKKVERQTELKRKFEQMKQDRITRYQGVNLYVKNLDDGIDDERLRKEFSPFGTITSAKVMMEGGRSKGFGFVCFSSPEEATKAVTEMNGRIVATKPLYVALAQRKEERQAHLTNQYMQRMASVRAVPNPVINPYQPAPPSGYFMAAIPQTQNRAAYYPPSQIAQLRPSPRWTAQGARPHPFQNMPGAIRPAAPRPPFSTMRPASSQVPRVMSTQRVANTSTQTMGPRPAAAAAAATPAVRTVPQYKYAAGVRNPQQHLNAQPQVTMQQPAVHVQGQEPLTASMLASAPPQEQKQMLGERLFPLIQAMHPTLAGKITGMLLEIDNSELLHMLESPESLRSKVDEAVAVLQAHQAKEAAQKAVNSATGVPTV
Nonstructural protein 1, sequence (Q194T2 whole entry): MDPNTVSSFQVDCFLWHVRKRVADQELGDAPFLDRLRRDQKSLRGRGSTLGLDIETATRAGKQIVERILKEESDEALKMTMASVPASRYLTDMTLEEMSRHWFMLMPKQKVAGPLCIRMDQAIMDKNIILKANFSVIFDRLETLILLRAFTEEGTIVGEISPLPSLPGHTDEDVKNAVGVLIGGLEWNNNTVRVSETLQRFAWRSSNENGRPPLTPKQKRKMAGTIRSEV
Cytochrome P450 2C19, sequence (P33261 whole entry): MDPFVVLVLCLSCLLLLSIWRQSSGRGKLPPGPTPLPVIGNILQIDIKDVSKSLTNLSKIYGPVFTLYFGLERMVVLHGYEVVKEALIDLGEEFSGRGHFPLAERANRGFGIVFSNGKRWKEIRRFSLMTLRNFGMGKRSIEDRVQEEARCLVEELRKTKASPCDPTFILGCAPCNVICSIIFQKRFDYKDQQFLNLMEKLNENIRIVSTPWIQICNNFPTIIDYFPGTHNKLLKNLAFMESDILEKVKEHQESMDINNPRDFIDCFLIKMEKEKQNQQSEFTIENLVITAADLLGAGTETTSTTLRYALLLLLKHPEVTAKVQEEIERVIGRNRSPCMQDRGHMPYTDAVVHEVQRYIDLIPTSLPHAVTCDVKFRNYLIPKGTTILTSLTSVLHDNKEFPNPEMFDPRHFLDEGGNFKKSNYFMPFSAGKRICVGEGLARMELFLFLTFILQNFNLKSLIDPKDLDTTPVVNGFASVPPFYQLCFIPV

For `C(=C\n1nnc2ccccc21)/c1ccc[nH]1`, the EC50 [1] was 9.95 µM (active), the EC50 (H4) was 32 µM (active) and the EC50 [2] was 28.4 µM (active).
For `O=C1c2cccnc2C(Nc2ccc(S(=O)(=O)N3CCCCCC3)cc2)N1Cc1ccccc1` (centres undefined), the AC50 [3] was 32.2 µM (active), the AC50 [4] was 27.2 µM (active) and the AC50 [5] was 30.5 µM (active).
With `CC(=O)c1c(C)[n+]([O-])c2cc(F)c(F)cc2[n+]1[O-]` the CC50 [6] was 35.4 µM (active).
With `COc1ccc(NC(=O)C(=O)NCC(c2ccco2)N2CCc3ccccc3C2)cc1` (centres undefined) the CC50 [6] was > 40 µM (active).
For `N#Cc1ccc(C(c2nnnn2CCc2ccccc2)N2CCCCCC2)cc1` (centres undefined), the AC50 [7] was 10.2 µM (active), the AC50 [3] was 20.2 µM (active) and the AC50 [4] was 4.92 µM (active). For the same compound, the AC50 [5] was 12.1 µM (active).
With `CC(C)c1cc(C(=O)Nc2cc(Br)ccc2O)no1` the EC50 [1] was > 120 µM (not active), the EC50 (H4) was > 120 µM (not active) and the EC50 [2] was 14 µM (active).
In the case of `CCCn1c(C2CCCN2c2nc(-c3cccc(Br)c3)cs2)nc2ccccc21` (centres undefined), the EC50 [1] was 32.7 µM (active), the EC50 (H4) was > 120 µM (not active) and the CC50 [8] was 20.9 µM (active). The EC50 [2] was 5.7 µM (active).
With `O=C(CCCn1c(=S)[nH]c2ccc(Br)cc2c1=O)NCC1CCCO1` (centres undefined) the AC50 (Cytochrome P450 2C9) was “inconclusive”, the EC50 [9] was > 260 µM (inactive) and the AC50 (Cytochrome P450 3A4) was 35.5 µM (inconclusive).
With `O=C(CCCN1CC=C(n2c(=O)[nH]c3ccccc32)CC1)c1ccc(F)cc1` [DROPERIDOL] the AC50 (Cytochrome P450 2C9) was “inconclusive”.
For `O=C(N/N=C/c1ccccc1O)C1SCCCS1`, the IC50 (Nonstructural protein 1) was 35.6 µM (active).
For `NC(=O)NC(=O)CC1SC(NN=C2CSC(=O)N2)=NC1=O` (centres undefined), the IC50 [10] was > 66 µM (inactive), the IC50 [11] was > 66 µM (inactive) and the IC50 (Nonstructural protein 1) was 7.54 µM (active).
With `Cc1cc(O)c2c(c1)C(=O)c1cc(O)cc(O)c1C2=O` [EMODIN] the CC50 [6] was 20.1 µM (active).
For `Sc1nnc(-c2cc[nH]n2)n1-c1ccccc1Cl`, the EC50 [1] was 24.1 µM (active), the EC50 (H4) was 19.3 µM (active) and the EC50 [2] was 12.7 µM (active).
In the case of `COc1ccc(-c2cc(=Nc3ccccc3)c3cc(C)ccc3o2)cc1.[O-][Cl+3]([O-])([O-])O`, the EC50 [1] was 10.3 µM (active), the EC50 (H4) was 9.82 µM (active) and the EC50 [2] was 12.7 µM (active).
With `O=C(Nc1nc[nH]n1)c1ccc([N+](=O)[O-])cc1[N+](=O)[O-]` the AC50 (Cytochrome P450 2C9) was “inconclusive”, the AC50 (Cytochrome P450 2C19) was 39.8 µM (inconclusive) and the AC50 (Cytochrome P450 3A4) was 14.1 µM (inconclusive).
In the case of `COc1ccc(Cl)cc1NC(=O)C12CCC(C)(C(=O)O1)C2(C)C` (centres undefined), the AC50 (Cytochrome P450 2C9) was “inconclusive” and the AC50 (Cytochrome P450 1A2) was 28.2 µM (inconclusive).
